Patent US9340590B2 (priority 2011, dated 2016)
Where two headings read alike, the source gives them in different places. Positions of bridges follow the written chain, without caps; N, C: chain ends. Non-standard residues stand in square brackets, D forms with d. Residues, ends and D or L forms follow the SMILES beside them. Trp(1-Me) = Cn1cc(C[C@H](N)C(=O)O)c2ccccc21; Phe(4-I) = N[C@@H](Cc1ccc(I)cc1)C(=O)O; 1Nal = N[C@@H](Cc1cccc2ccccc12)C(=O)O

Key:
Test in all cases: cell-based
hNav1.3 = hNav1.3 (Homo sapiens, UniProt Q9NY46); details: IonWorks Quattro, read-out: IWQ Use Nav1.3
hNav1.3, sequence (Q9NY46 whole entry, looked up): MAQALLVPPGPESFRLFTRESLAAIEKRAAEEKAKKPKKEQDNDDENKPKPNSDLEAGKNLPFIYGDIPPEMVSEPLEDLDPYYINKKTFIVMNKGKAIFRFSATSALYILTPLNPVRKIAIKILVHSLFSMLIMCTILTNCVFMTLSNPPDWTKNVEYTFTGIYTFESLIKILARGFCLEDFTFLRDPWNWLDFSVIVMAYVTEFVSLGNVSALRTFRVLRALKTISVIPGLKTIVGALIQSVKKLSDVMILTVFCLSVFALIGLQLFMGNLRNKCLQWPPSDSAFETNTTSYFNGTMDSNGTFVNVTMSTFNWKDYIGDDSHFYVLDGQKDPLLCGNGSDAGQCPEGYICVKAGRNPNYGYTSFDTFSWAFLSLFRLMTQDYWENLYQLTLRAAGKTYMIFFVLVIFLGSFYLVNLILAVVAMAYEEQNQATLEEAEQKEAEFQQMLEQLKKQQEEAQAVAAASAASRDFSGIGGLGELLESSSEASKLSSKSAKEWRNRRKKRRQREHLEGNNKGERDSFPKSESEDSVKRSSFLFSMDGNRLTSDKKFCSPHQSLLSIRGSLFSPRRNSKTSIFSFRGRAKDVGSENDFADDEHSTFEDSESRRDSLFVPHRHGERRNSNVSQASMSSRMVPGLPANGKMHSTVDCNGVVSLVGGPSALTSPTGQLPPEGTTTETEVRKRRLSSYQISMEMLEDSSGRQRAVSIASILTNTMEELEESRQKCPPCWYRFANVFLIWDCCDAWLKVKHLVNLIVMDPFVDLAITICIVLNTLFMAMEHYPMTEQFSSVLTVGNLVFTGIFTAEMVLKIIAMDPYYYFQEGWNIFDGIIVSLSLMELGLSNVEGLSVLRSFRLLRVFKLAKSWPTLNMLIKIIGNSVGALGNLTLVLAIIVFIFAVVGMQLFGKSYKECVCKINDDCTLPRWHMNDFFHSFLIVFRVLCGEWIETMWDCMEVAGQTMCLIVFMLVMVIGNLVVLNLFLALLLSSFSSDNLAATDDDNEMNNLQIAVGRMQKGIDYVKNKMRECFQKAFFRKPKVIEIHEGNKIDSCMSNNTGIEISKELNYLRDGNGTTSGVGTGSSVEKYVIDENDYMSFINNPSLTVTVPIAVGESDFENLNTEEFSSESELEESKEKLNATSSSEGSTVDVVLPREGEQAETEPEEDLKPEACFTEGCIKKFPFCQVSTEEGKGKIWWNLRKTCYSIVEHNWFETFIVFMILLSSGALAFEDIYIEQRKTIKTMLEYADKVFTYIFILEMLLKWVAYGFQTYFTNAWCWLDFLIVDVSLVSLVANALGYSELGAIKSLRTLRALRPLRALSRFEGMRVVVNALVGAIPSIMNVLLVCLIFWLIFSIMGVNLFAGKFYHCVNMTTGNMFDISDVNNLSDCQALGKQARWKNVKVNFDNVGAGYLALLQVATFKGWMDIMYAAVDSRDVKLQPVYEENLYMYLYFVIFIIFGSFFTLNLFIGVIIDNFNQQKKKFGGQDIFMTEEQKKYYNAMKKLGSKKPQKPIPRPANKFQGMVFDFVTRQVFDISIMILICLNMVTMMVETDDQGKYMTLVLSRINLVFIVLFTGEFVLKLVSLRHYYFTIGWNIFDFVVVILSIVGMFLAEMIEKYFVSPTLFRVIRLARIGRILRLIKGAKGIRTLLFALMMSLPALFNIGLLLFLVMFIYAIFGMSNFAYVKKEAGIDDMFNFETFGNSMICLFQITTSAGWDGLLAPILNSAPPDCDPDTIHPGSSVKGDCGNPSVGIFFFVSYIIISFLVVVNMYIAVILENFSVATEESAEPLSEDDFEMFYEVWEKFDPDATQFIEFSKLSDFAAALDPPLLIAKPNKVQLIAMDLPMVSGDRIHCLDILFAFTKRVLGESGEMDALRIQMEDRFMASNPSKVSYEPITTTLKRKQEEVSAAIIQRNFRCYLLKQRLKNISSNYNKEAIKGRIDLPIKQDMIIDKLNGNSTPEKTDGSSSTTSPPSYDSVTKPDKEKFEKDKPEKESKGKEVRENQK

hNav1.7 = hNav1.7 (Homo sapiens, UniProt Q15858); format: cell-based; details: IonWorks Quattro, read-out: IWQ Use Nav1.7
hNav1.7, sequence (Q15858 whole entry, looked up): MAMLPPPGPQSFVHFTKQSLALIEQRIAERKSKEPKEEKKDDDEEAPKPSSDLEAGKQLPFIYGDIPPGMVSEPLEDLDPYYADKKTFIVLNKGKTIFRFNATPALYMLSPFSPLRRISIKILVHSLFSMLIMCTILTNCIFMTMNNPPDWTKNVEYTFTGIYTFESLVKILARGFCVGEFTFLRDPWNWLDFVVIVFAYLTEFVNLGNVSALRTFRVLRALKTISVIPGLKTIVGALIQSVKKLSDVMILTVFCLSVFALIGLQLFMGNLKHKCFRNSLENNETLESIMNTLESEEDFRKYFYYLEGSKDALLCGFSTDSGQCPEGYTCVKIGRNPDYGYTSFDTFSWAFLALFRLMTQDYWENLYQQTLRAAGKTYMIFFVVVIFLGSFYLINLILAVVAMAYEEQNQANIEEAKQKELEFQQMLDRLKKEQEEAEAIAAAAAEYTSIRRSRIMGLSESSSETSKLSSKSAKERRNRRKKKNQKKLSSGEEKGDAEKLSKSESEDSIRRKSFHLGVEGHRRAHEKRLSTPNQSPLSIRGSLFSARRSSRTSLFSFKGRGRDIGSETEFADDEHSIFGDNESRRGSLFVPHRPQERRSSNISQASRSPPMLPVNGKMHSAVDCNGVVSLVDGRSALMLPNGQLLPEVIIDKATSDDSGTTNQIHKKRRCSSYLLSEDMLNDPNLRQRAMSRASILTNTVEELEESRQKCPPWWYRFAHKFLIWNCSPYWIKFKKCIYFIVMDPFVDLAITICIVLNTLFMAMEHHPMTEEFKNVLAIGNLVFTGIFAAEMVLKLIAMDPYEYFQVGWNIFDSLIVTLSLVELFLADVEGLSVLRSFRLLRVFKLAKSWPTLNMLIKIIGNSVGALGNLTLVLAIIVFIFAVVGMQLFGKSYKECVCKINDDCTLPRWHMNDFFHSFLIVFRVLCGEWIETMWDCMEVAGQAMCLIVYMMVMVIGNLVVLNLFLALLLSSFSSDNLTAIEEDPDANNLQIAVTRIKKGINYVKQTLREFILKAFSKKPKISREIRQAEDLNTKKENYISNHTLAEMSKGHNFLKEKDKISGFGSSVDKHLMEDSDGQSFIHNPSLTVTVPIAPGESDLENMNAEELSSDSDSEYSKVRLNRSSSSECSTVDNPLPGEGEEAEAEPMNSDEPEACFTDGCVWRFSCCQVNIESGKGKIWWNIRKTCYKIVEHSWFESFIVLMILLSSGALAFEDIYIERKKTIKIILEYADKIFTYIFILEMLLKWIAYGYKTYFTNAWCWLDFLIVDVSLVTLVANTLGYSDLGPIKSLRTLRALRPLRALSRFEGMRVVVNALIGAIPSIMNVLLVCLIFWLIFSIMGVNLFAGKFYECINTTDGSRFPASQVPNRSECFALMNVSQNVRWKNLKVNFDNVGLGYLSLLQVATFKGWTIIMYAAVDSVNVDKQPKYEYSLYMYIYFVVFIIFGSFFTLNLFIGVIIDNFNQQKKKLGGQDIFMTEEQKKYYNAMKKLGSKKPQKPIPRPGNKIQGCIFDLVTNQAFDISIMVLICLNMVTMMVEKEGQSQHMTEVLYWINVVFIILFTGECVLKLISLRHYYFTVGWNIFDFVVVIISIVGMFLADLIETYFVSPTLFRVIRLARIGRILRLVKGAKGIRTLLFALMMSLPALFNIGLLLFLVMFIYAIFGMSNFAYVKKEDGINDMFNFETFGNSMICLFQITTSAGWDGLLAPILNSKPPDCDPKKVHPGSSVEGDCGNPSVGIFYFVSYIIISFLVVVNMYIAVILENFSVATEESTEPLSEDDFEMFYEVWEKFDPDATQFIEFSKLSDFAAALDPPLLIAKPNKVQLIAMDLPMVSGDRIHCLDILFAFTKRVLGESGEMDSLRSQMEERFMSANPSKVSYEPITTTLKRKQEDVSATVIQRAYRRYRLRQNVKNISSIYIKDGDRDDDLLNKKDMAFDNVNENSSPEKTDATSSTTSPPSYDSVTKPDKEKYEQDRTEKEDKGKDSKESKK

hNav1.5 = hNav1.5 (Homo sapiens, UniProt Q14524)
[1] = Table 26, IonWorks Quattro, use, […], read-out: IWQ Use Nav1.5
[2] = IonWorks Quattro, use-dependent block, hNav1.5, read-out: IWQ Use Nav1.5

Structure (SMILES)	IC50 (hNav1.3; Table 26, use, […]) [nM]	IC50 (hNav1.7; Table 26, use, […]) [nM]	IC50 (hNav1.5; [1]) [µM]	IC50 (hNav1.3; use-dependent block, hNav1.3) [nM]	IC50 (hNav1.7; use-dependent block, hNav1.7) [nM]	IC50 (hNav1.5; [2]) [µM]	IC50 (hNav1.5; IWQ Use Nav1.5 (μM)) [µM]
CC[C@H](C)[C@@H]1NC(=O)[C@@H]2CSSC[C@@H]3NC(=O)[C@H](C(C)C)NC(=O)[C@H](CC(C)C)NC(=O)[C@H](CC(N)=O)NC(=O)[C@@H]4CCCN4C(=O)[C@H](CCCNC(=N)N)NC(=O)[C@H](CSSC[C@H](NC(=O)[C@@H](N)CC(=O)O)C(=O)N[C@@H](CC(C)C)C(=O)NCC(=O)N[C@@H](Cc4ccccc4)C(=O)N[C@@H](CCSC)C(=O)N[C@@H](CCCNC(=N)N)C(=O)N[C@@H](CCCCN)C(=O)N2)NC(=O)[C@H](CSSC[C@@H](C(=O)N[C@@H](CCCCN)C(=O)N[C@@H](Cc2ccc(O)cc2)C(=O)N[C@@H](Cc2ccc(I)cc2)C(=O)N[C@@H](Cc2ccccc2)C(N)=O)NC(=O)[C@H](Cc2c[nH]c4ccccc24)NC(=O)[C@H](CCCCN)NC(=O)[C@H](Cc2c[nH]cn2)NC(=O)[C@H]([C@@H](C)O)NC(=O)[C@H](CCCNC(=N)N)NC(=O)[C@H](CO)NC3=O)NC(=O)[C@H](CCCCN)NC(=O)[C@H](CC(=O)O)NC(=O)[C@H](CC(N)=O)NC(=O)[C@H](CC(=O)O)NC(=O)[C@@H]2CCCN2C1=O [compound 249] (H-DCLGFMRKCIPDNDKCCRPNLVCSRTHKWCKY[Phe(4-I)]F-NH2; disulfide 2-17, 9-23, 16-30)	60	90	7.78				
CC[C@H](C)[C@@H]1NC(=O)[C@@H]2CSSC[C@@H]3NC(=O)[C@H](C(C)C)NC(=O)[C@H](CC(C)C)NC(=O)[C@H](CC(N)=O)NC(=O)[C@@H]4CCCN4C(=O)[C@H](CCCNC(=N)N)NC(=O)[C@H](CSSC[C@H](NC(=O)[C@@H](N)CC(=O)O)C(=O)N[C@@H](CC(C)C)C(=O)NCC(=O)N[C@@H](Cc4ccccc4)C(=O)N[C@@H](CCSC)C(=O)N[C@@H](CCCNC(=N)N)C(=O)N[C@@H](CCCCN)C(=O)N2)NC(=O)[C@H](CSSC[C@@H](C(=O)N[C@@H](CCCCN)C(=O)N[C@@H](Cc2ccc(O)cc2)C(=O)N[C@@H](Cc2cn(C)c4ccccc24)C(=O)N[C@@H](Cc2ccccc2)C(N)=O)NC(=O)[C@H](Cc2c[nH]c4ccccc24)NC(=O)[C@H](CCCCN)NC(=O)[C@H](Cc2c[nH]cn2)NC(=O)[C@H]([C@@H](C)O)NC(=O)[C@H](CCCNC(=N)N)NC(=O)[C@H](CO)NC3=O)NC(=O)[C@H](CCCCN)NC(=O)[C@H](CC(=O)O)NC(=O)[C@H](CC(N)=O)NC(=O)[C@H](CC(=O)O)NC(=O)[C@@H]2CCCN2C1=O [compound 250] (H-DCLGFMRKCIPDNDKCCRPNLVCSRTHKWCKY[Trp(1-Me)]F-NH2; disulfide 2-17, 9-23, 16-30)	70	90	5.35				
CC[C@H](C)[C@@H]1NC(=O)[C@@H]2CSSC[C@@H]3NC(=O)[C@H](C(C)C)NC(=O)[C@H](CC(C)C)NC(=O)[C@H](CC(N)=O)NC(=O)[C@@H]4CCCN4C(=O)[C@H](CCCNC(=N)N)NC(=O)[C@H](CSSC[C@H](NC(=O)[C@@H](N)CC(=O)O)C(=O)N[C@@H](CC(C)C)C(=O)NCC(=O)N[C@@H](Cc4ccccc4)C(=O)N[C@@H](CCSC)C(=O)N[C@@H](CCCNC(=N)N)C(=O)N[C@@H](CCCCN)C(=O)N2)NC(=O)[C@H](CSSC[C@@H](C(=O)N[C@@H](CCCCN)C(=O)N[C@@H](Cc2cccc4ccccc24)C(=O)N[C@H](C(=O)N[C@@H](Cc2ccccc2)C(N)=O)C(C)C)NC(=O)[C@H](Cc2c[nH]c4ccccc24)NC(=O)[C@H](CCCNC(=N)N)NC(=O)[C@H](Cc2c[nH]cn2)NC(=O)[C@H]([C@@H](C)O)NC(=O)[C@H](CCCNC(=N)N)NC(=O)[C@H](CO)NC3=O)NC(=O)[C@H](CCCCN)NC(=O)[C@H](CC(=O)O)NC(=O)[C@H](CC(N)=O)NC(=O)[C@H](CC(=O)O)NC(=O)[C@@H]2CCCN2C1=O [compound 251] (H-DCLGFMRKCIPDNDKCCRPNLVCSRTHRWCK[1Nal]VF-NH2; disulfide 2-17, 9-23, 16-30)				2	5	2.56	
CC[C@H](C)[C@@H]1NC(=O)[C@@H]2CSSC[C@@H]3NC(=O)[C@H](C(C)C)NC(=O)[C@H](CC(C)C)NC(=O)[C@H](CC(N)=O)NC(=O)[C@@H]4CCCN4C(=O)[C@H](CCCNC(=N)N)NC(=O)[C@H](CSSC[C@H](NC(=O)[C@@H](N)CC(=O)O)C(=O)N[C@@H](CC(C)C)C(=O)NCC(=O)N[C@@H](C)C(=O)N[C@@H](CCSC)C(=O)N[C@@H](CCCNC(=N)N)C(=O)N[C@@H](CCCCN)C(=O)N2)NC(=O)[C@H](CSSC[C@@H](C(=O)N[C@@H](CCCCN)C(=O)N[C@@H](Cc2ccc(O)cc2)C(=O)N[C@@H](Cc2c[nH]c4ccccc24)C(=O)N[C@@H](Cc2ccccc2)C(N)=O)NC(=O)[C@H](Cc2c[nH]c4ccccc24)NC(=O)[C@H](CCCCN)NC(=O)[C@H](Cc2c[nH]cn2)NC(=O)[C@H]([C@@H](C)O)NC(=O)[C@H](CCCNC(=N)N)NC(=O)[C@H](CO)NC3=O)NC(=O)[C@H](CCCCN)NC(=O)[C@H](CC(=O)O)NC(=O)[C@H](CC(N)=O)NC(=O)[C@H](CC(=O)O)NC(=O)[C@@H]2CCCN2C1=O [compound 252] (H-DCLGAMRKCIPDNDKCCRPNLVCSRTHKWCKYWF-NH2; disulfide 2-17, 9-23, 16-30)				400	230	5	
CC[C@H](C)[C@@H]1NC(=O)[C@@H]2CSSC[C@@H]3NC(=O)[C@H](C(C)C)NC(=O)[C@H](CC(C)C)NC(=O)[C@H](CC(N)=O)NC(=O)[C@@H]4CCCN4C(=O)[C@H](CCCNC(=N)N)NC(=O)[C@H](CSSC[C@H](NC(=O)[C@@H](N)CC(=O)O)C(=O)N[C@@H](CC(C)C)C(=O)NCC(=O)N[C@@H](C)C(=O)N[C@@H](CCSC)C(=O)N[C@@H](CCCNC(=N)N)C(=O)N[C@@H](CCCCN)C(=O)N2)NC(=O)[C@H](CSSC[C@@H](C(=O)N[C@@H](CCCCN)C(=O)N[C@@H](Cc2c[nH]c4ccccc24)C(=O)N[C@H](C(=O)N[C@@H](Cc2ccccc2)C(N)=O)C(C)C)NC(=O)[C@H](Cc2c[nH]c4ccccc24)NC(=O)[C@H](CCCCN)NC(=O)[C@H](Cc2c[nH]cn2)NC(=O)[C@H]([C@@H](C)O)NC(=O)[C@H](CCCNC(=N)N)NC(=O)[C@H](CO)NC3=O)NC(=O)[C@H](CCCCN)NC(=O)[C@H](CC(=O)O)NC(=O)[C@H](CC(N)=O)NC(=O)[C@H](CC(=O)O)NC(=O)[C@@H]2CCCN2C1=O [compound 253] (H-DCLGAMRKCIPDNDKCCRPNLVCSRTHKWCKWVF-NH2; disulfide 2-17, 9-23, 16-30)				530	270	5	
CC[C@H](C)[C@@H]1NC(=O)[C@@H]2CSSC[C@@H]3NC(=O)[C@H](C(C)C)NC(=O)[C@H](CC(C)C)NC(=O)[C@H](CC(N)=O)NC(=O)[C@@H]4CCCN4C(=O)[C@H](CCCNC(=N)N)NC(=O)[C@H](CSSC[C@H](NC(=O)[C@@H](N)CC(=O)O)C(=O)N[C@@H](CC(C)C)C(=O)NCC(=O)N[C@@H](C)C(=O)N[C@@H](CCSC)C(=O)N[C@@H](CCCNC(=N)N)C(=O)N[C@@H](CCCCN)C(=O)N2)NC(=O)[C@H](CSSC[C@@H](C(=O)N[C@@H](CCCCN)C(=O)N[C@@H](Cc2cccc4ccccc24)C(=O)N[C@H](C(=O)N[C@@H](Cc2ccccc2)C(N)=O)C(C)C)NC(=O)[C@H](Cc2c[nH]c4ccccc24)NC(=O)[C@H](CCCCN)NC(=O)[C@H](Cc2c[nH]cn2)NC(=O)[C@H]([C@@H](C)O)NC(=O)[C@H](CCCNC(=N)N)NC(=O)[C@H](CO)NC3=O)NC(=O)[C@H](CCCCN)NC(=O)[C@H](CC(=O)O)NC(=O)[C@H](CC(N)=O)NC(=O)[C@H](CC(=O)O)NC(=O)[C@@H]2CCCN2C1=O [compound 254] (H-DCLGAMRKCIPDNDKCCRPNLVCSRTHKWCK[1Nal]VF-NH2; disulfide 2-17, 9-23, 16-30)				200	60	5	
CC[C@H](C)[C@@H]1NC(=O)[C@@H]2CSSC[C@@H]3NC(=O)[C@H](C(C)C)NC(=O)[C@H](CC(C)C)NC(=O)[C@H](CC(N)=O)NC(=O)[C@@H]4CCCN4C(=O)[C@H](CCCNC(=N)N)NC(=O)[C@H](CSSC[C@H](NC(=O)[C@@H](N)CC(=O)O)C(=O)N[C@@H](CC(C)C)C(=O)NCC(=O)N[C@@H](C)C(=O)N[C@@H](CCSC)C(=O)N[C@@H](CCCNC(=N)N)C(=O)N[C@@H](CCCCN)C(=O)N2)NC(=O)[C@H](CSSC[C@@H](C(=O)N[C@@H](CCCCN)C(=O)N[C@@H](Cc2ccc(O)cc2)C(=O)N[C@H](C(=O)N[C@@H](Cc2ccccc2)C(N)=O)C(C)C)NC(=O)[C@H](Cc2c[nH]c4ccccc24)NC(=O)[C@H](CCCCN)NC(=O)[C@H](Cc2cnc[nH]2)NC(=O)[C@H](CC(C)C)NC(=O)[C@H](CCCNC(=N)N)NC(=O)[C@H](CO)NC3=O)NC(=O)[C@H](CCCCN)NC(=O)[C@H](CC(=O)O)NC(=O)[C@H](CC(N)=O)NC(=O)[C@H](CC(=O)O)NC(=O)[C@@H]2CCCN2C1=O [compound 255] (H-DCLGAMRKCIPDNDKCCRPNLVCSRLHKWCKYVF-NH2; disulfide 2-17, 9-23, 16-30)				680	280		5
CC[C@H](C)[C@@H]1NC(=O)[C@@H]2CSSC[C@@H]3NC(=O)[C@H](C(C)C)NC(=O)[C@H](CC(C)C)NC(=O)[C@H](CC(N)=O)NC(=O)[C@@H]4CCCN4C(=O)[C@H](CCCNC(=N)N)NC(=O)[C@H](CSSC[C@H](NC(=O)[C@@H](N)CC(=O)O)C(=O)N[C@@H](CC(C)C)C(=O)NCC(=O)N[C@@H](C)C(=O)N[C@@H](Cc4cccc5ccccc45)C(=O)N[C@@H](CCCNC(=N)N)C(=O)N[C@@H](CCCCN)C(=O)N2)NC(=O)[C@H](CSSC[C@@H](C(=O)N[C@@H](CCCCN)C(=O)N[C@@H](Cc2ccc(O)cc2)C(=O)N[C@H](C(=O)N[C@@H](Cc2ccccc2)C(N)=O)C(C)C)NC(=O)[C@H](Cc2c[nH]c4ccccc24)NC(=O)[C@H](CCCCN)NC(=O)[C@H](Cc2cnc[nH]2)NC(=O)[C@H]([C@@H](C)O)NC(=O)[C@H](CCCNC(=N)N)NC(=O)[C@H](CO)NC3=O)NC(=O)[C@H](CCCCN)NC(=O)[C@H](CC(=O)O)NC(=O)[C@H](CC(N)=O)NC(=O)[C@H](CC(=O)O)NC(=O)[C@@H]2CCCN2C1=O [compound 256]				60	100	5	
